In patent US20090143279A1 (priority 2007, published 2009):
Where two headings read alike, the source gives them in different places.

Legend:
C2C12 myotubes = conditions: for Viability (composite Z-score): normalized score vs mock-treated (DMSO) wells
OXPHOS gene expression = assay type: cell-based, mouse; conditions: for GE-HTS (composite Z-score): normalized score vs mock-treated (DMSO) wells
[1] = system: mitochondrial membrane potential; assay type: cell-based, mouse; conditions: for ΔΨm (composite Z-score): normalized score vs mock-treated (DMSO) wells
cytochrome c = assay type: cell-based, mouse; conditions: for cyt c (composite Z-score): normalized score vs mock-treated (DMSO) wells
reactive oxygen species = assay type: cell-based, mouse; conditions: for ROS (composite Z-score): normalized score vs mock-treated (DMSO) wells
nuOXPHOS transcripts = assay type: cell-based, mouse; conditions: for nucOX (composite Z-score): normalized score vs mock-treated (DMSO) wells
mtOXPHOS transcripts = assay type: cell-based, mouse; conditions: for mitoOX (composite Z-score): normalized score vs mock-treated (DMSO) wells
[2] = system: cellular dehydrogenase activity; conditions: for MTT (composite Z-score): normalized score vs mock-treated (DMSO) wells
[3] = composite Z-score vs DMSO wells, Conc 20 μM
[4] = composite Z-score vs DMSO, Conc 20 μM
[5] = normalized composite Z-score vs mock-treated (DMSO) wells, Conc 20 μM
[6] = 14.26 μM, composite Z-score vs DMSO
[7] = 20 μM, composite Z-score vs DMSO

| Structure (SMILES) | Viability (composite Z-score) (C2C12 myotubes; Conc 20 μM) | GE-HTS (composite Z-score) (OXPHOS gene expression; Conc 20 μM) | ΔΨm (composite Z-score) ([1]; Conc 20 μM) | cyt c (composite Z-score) (cytochrome c; Conc 20 μM) | ROS (composite Z-score) (reactive oxygen species; Conc 20 μM) | nucOX (composite Z-score) (nuOXPHOS transcripts; Conc 20 μM) | mitoOX (composite Z-score) (mtOXPHOS transcripts; Conc 20 μM) | MTT (composite Z-score) ([2]; Conc 20 μM) | Viability (C2C12 myotubes; [4]) | GE-HTS (OXPHOS gene expression; [4]) | ΔΨm [1, 4] | cyt c (cytochrome c; [4]) | ROS (reactive oxygen species; [4]) | nucOX (nuOXPHOS transcripts; [4]) | mitoOX (mtOXPHOS transcripts; [4]) | MTT [2, 4] | also measured |
| --- | --- | --- | --- | --- | --- | --- | --- | --- | --- | --- | --- | --- | --- | --- | --- | --- | --- |
| C[C@@H]1CC[C@H]2[C@](C)(CO)[C@@H](O)CC[C@]2(C)[C@@]12CC[C@@](CO)(CCO)O2 [lagochilin] | 0.043 | 0.002 | 0.277 | −0.862 | 0.962 | −0.036 | 0.128 | −0.238 |  |  |  |  |  |  |  |  |  |
| CC(=O)O[C@H]1C[C@H](O[C@H]2[C@@H](O)C[C@H](O[C@H]3[C@@H](O)C[C@H](O[C@H]4CC[C@@]5(C)[C@H](CC[C@@H]6[C@@H]5C[C@@H](O)[C@]5(C)[C@@H](C7=CC(=O)OC7)CC[C@]65O)C4)O[C@@H]3C)O[C@@H]2C)O[C@H](C)[C@H]1O[C@@H]1O[C@H](CO)[C@@H](O)[C@H](O)[C@H]1O [lanatoside C] |  |  |  |  |  |  |  |  |  |  |  |  |  |  |  |  | Viability (C2C12 myotubes; [3]): −0.704; GE-HTS (OXPHOS gene expression; [3]): −0.931; ΔΨm [1, 3]: −1.105; cyt c (cytochrome c; [3]): 0.664; ROS (reactive oxygen species; [3]): −0.033; nucOX (nuOXPHOS transcripts; [3]): −0.844; mitoOX (mtOXPHOS transcripts; [3]): −0.935; MTT [2, 3]: −0.887 |
| CC(C)=CCC1=C(O)C(=O)c2ccccc2C1=O [lapachol] |  |  |  |  |  |  |  |  |  |  |  |  |  |  |  |  | Viability (C2C12 myotubes; [3]): −0.409; GE-HTS (OXPHOS gene expression; [3]): −1.316; ΔΨm [1, 3]: 0.035; cyt c (cytochrome c; [3]): 0.325; ROS (reactive oxygen species; [3]): −0.544; nucOX (nuOXPHOS transcripts; [3]): −1.308; mitoOX (mtOXPHOS transcripts; [3]): −1.077; MTT [2, 3]: −1.211 |
| C=C[C@@](C)(O)CC[C@H]1C(=C)C[C@H](O)[C@H]2C(C)(C)CCC[C@]12C [larixol] | 0.085 | −0.507 | −0.141 | 0.944 | 1.068 | −0.466 | −0.552 | −0.221 |  |  |  |  |  |  |  |  |  |
| CC[C@@H](C(=O)[C@@H](C)[C@@H](O)[C@H](C)CCc1ccc(C)c(O)c1C(=O)O)[C@H]1O[C@](CC)([C@H]2CC[C@](O)(CC)[C@H](C)O2)C[C@@H]1C [lasalocid, reference compound] |  |  |  |  |  |  |  |  | −1.090 | −1.524 | −1.178 | −1.690 | −2.993 | 0.274 | −4.908 | −1.771 |  |
| COC(=O)c1c(C)c2c(c(C)c1OC)OC(=O)c1c(C)c(Cl)c(OC)c(Cl)c1O2 [leoidin dimethyl ether] |  |  |  |  |  |  |  |  |  |  |  |  |  |  |  |  | Viability (C2C12 myotubes; [5]): 0.677; GE-HTS (OXPHOS gene expression; [5]): −1.008; ΔΨm [1, 5]: −0.320; cyt c (cytochrome c; [5]): 1.032; ROS (reactive oxygen species; [5]): −0.121; nucOX (nuOXPHOS transcripts; [5]): −0.595; mitoOX (mtOXPHOS transcripts; [5]): −1.691; MTT [2, 5]: −0.726 |
| COC(=O)c1c(C)c2c(c(C)c1O)OC(=O)c1c(C)c(Cl)c(O)c(Cl)c1O2 [leoidin] |  |  |  |  |  |  |  |  | 0.035 | −0.611 | −1.352 | 0.341 | 1.481 | −0.523 | −0.638 | 0.994 |  |
| CC1=CC(=O)C2=C(C)CC[C@@H]3[C@H](OC(=O)[C@H]3C)[C@@H]12 [leucodin] | −0.525 | −0.300 | −0.355 | −0.301 | 0.695 | −0.270 | −0.261 | −1.134 |  |  |  |  |  |  |  |  |  |
| CC1=CC(=O)C2=C(C)CC[C@@H]3[C@H](OC(=O)[C@H]3C)[C@@H]12 [leucomisine] |  |  |  |  |  |  |  |  |  |  |  |  |  |  |  |  | Viability (composite Z-score) (C2C12 myotubes; Conc 16.24 μM): −0.439; GE-HTS (composite Z-score) (OXPHOS gene expression; Conc 16.24 μM): −0.450; ΔΨm (composite Z-score) ([1]; Conc 16.24 μM): 0.151; cyt c (composite Z-score) (cytochrome c; Conc 16.24 μM): −0.568; ROS (composite Z-score) (reactive oxygen species; Conc 16.24 μM): 0.368; nucOX (composite Z-score) (nuOXPHOS transcripts; Conc 16.24 μM): −0.405; mitoOX (composite Z-score) (mtOXPHOS transcripts; Conc 16.24 μM): −0.470; MTT (composite Z-score) ([2]; Conc 16.24 μM): −1.034 |
| CC1(C)O[C@H]2CC(=O)OC[C@]23[C@H]2CC[C@@]4(C)[C@H](c5ccoc5)OC(=O)[C@H]5O[C@]54[C@]2(C)C(=O)C[C@@H]13 [limonin] |  |  |  |  |  |  |  |  | −0.818 | −0.197 | −0.668 | 0.042 | 1.165 | −0.317 | 0.127 | −1.564 |  |
| CC(C)(C#N)O[C@@H]1O[C@H](CO)[C@@H](O)[C@H](O)[C@H]1O [linamarin] | 0.796 | −1.024 | −0.333 | −0.052 | −0.189 | −0.847 | −1.232 | −1.611 |  |  |  |  |  |  |  |  |  |
| CCCCCc1c2c(cc(O)c1C(=O)O)OC(=O)c1c(cc(OC)cc1C(=O)CCCC)O2 [lobaric acid] |  |  |  |  |  |  |  |  | 0.082 | −0.455 | −0.164 | −0.020 | 0.860 | −0.499 | −0.343 | −0.427 |  |
| C[C@@H]1[C@H]2[C@H](O[C@@H]3O[C@H](CO)[C@@H](O)[C@H](O)[C@H]3O)OC=C(C(=O)O)[C@H]2C[C@@H]1O [loganic acid] | 1.214 | −0.463 | −0.193 | −0.485 | −0.346 | −0.274 | −0.800 | −0.538 |  |  |  |  |  |  |  |  |  |
| O=C1CC[C@]23/C=C/C(=O)NCCCCNCCCNC(=O)/C=C/c4ccc(c2c4)O[C@@H]3C1 [lunarine] |  |  |  |  |  |  |  |  | −0.579 | −0.945 | −0.795 | 0.685 | 0.385 | −0.880 | −0.856 | −0.938 |  |
| C[C@@H]1C[C@H]2CC(=O)[C@H]3CCCN4CCC[C@H]2[C@]34C1 [lycopodine] |  |  |  |  |  |  |  |  | −0.466 | −0.150 | −0.239 | −0.093 | 0.500 | −0.028 | −0.411 | −1.139 |  |
| Oc1ccc2c(c1)OC[C@H]1c3cc4c(cc3O[C@@H]21)OCO4 [maackiain] | −1.052 | −0.561 | 0.391 | 0.969 | 0.879 | −0.285 | −1.049 | −0.578 |  |  |  |  |  |  |  |  |  |
| CCN(CC)CCNC(=O)COc1ccc(OC)cc1 [mefexamide] |  |  |  |  |  |  |  |  |  |  |  |  |  |  |  |  | Viability (C2C12 myotubes; [6]): −0.541; Viability (C2C12 myotubes; [7]): −2.120; GE-HTS (OXPHOS gene expression; [6]): −0.340; GE-HTS (OXPHOS gene expression; [7]): −0.215; ΔΨm [1, 6]: −0.719; ΔΨm [1, 7]: −0.643; cyt c (cytochrome c; [6]): 0.129; cyt c (cytochrome c; [7]): −0.257; ROS (reactive oxygen species; [6]): 1.172; ROS (reactive oxygen species; [7]): 0.837; nucOX (nuOXPHOS transcripts; [6]): −0.498; nucOX (nuOXPHOS transcripts; [7]): −0.253; mitoOX (mtOXPHOS transcripts; [6]): 0.009; mitoOX (mtOXPHOS transcripts; [7]): −0.101; MTT [2, 6]: −1.363; MTT [2, 7]: −1.270 |
